system: Utrophin A promoter linked to a luciferase reporter gene; experiment: Luciferase reporter assay (murine H2K cells), H2K/mdx/Utro A reporter cell line; format: cell-based; conditions: 48 h; test compound concentration 0.3 μM; mdx mouse H2K Utrophin A reporter cells; read-out: Activity (luciferase level relative to control)
Description: Luciferase Reporter Assay (Murine H2K Cells)
The cell line used for the screen is an immortalized mdx mouse H2K cell line that has been stably transfected with a plasmid containing ≈5 kb fragment of the Utrophin A promoter including the first untranslated exon linked to a luciferase reporter gene.
Under conditions of low temperature and interferon containing media, the cells remain as myoblasts. These are plated into 96 well plates and cultured in the presence of compound for three days. The level of luciferase is then determined by cell lysis and reading of the light output from the expressed luciferase gene utilising a plate luminometer.
Luciferase Assay for 96 Well Plates
The H2K/mdx/Utro A reporter cell line cells were plated out into 96 well plates (Falcon 353296, white opaque) at a density of approximately 5000 cells/well in 190 μl normal growth medium. The plates were then incubated at 33° C. in the presence of 10% CO2 for 24 hrs.
Compounds were dosed by adding 10 μl of diluted compound to each well giving a final concentration of 10 μM (where a different final concentration was required, the amount of compound solution added was amended accordingly). The plates were then incubated for a further 48 hrs. Cells were then lysed in situ following the manufacture's protocols (Promega Steady-Glo Luciferase Assay System(E2520). Then counted for 10 seconds using a plate luminometer (Victor1420).
Compounds for screening were stored at −20° C. as 10 mM stocks in 100% DMSO until required.
Biological activity as assessed using the luciferase reporter assay in murine H2K cells, and the results are shown in Table 1, which also lists the concentration of the test compound solution in μM.

SMILES | activity at 0.3 µM [%]
CS(=O)(=O)c1ccc(Cn2nc(CNc3ccc4c(c3)OCO4)c3ccccc32)cc1 [Compound 90, N-((1-(4-(methylsulfonyl)benzyl)-1H-indazol-3-yl)methyl)benzo[d][1,3]dioxol-5-amine] | < 200

same assay, conditions: 48 h; test compound concentration 3 μM; mdx mouse H2K Utrophin A reporter cells; read-out: Activity (luciferase level relative to control)

SMILES | activity at 3 µM [%]
CS(=O)(=O)c1ccc(Cn2nc(C(=O)Nc3ccc(O)cc3)c3ccccc32)cc1 [Compound 88, N-(4-hydroxyphenyl)-1-(4-(methylsulfonyl)benzyl)-1H-indazole-3-carboxamide] | < 200

same assay, conditions: 48 h; test compound concentration 10 μM; mdx mouse H2K Utrophin A reporter cells; read-out: Activity (luciferase level relative to control)

SMILES | activity at 10 µM [%]
C#CCN(C)S(=O)(=O)c1ccc(Cn2nc(C(=O)Nc3ccc4c(c3)OCO4)c3ccccc32)cc1 [Compound 21, N-(benzo[d][1,3]dioxol-5-yl)-1-(4-(N-methyl-N-(prop-2-ynyl)sulfamoyl)benzyl)-1H-indazole-3-carboxamide] | > 401
CC(C)(C)c1ccc(NC(=O)c2nn(Cc3ccc(S(C)(=O)=O)cc3)c3ccccc23)cc1 [Compound 81, N-(4-tert-butylphenyl)-1-(4-(methylsulfonyl)benzyl)-1H-indazole-3-carboxamide] | < 200
COc1cccc(OC)c1NC(=O)Nc1nn(Cc2ccc(C(F)(F)F)cc2)c2ccccc12 [Compound 12, 1-(2,6-dimethoxyphenyl)-3-(1-(4-(trifluoromethyl)benzyl)-1H-indazol-3-yl)urea] | < 200
O=C(Nc1ccc2c(c1)OCO2)c1nn(CCOc2ccc(F)cc2)c2ccccc12 [Compound 46, N-(benzo[d][1,3]dioxol-5-yl)-1-(2-(4-fluorophenoxy)ethyl)-1H-indazole-3-carboxamide] | < 200
COc1cc(NC(=O)Nc2nn(Cc3cc4c(cc3Cl)OCO4)c3ccccc23)cc(OC)c1 [Compound 52, 1-(1-((6-chlorobenzo[d][1,3]dioxol-5-yl)methyl)-1H-indazol-3-yl)-3-(3,5-dimethoxyphenyl)urea] | < 200
CS(=O)(=O)c1ccc(Cn2nc(C(=O)Nc3ccc4c(c3)CS(=O)(=O)C4)c3ccccc32)cc1 [Compound 113, N-(1,3-dihydrobenzo[c]thiophen-2,2-dioxy-5-yl)-1-(4-(methylsulfonyl)benzyl)-1H-indazole-3-carboxamide] | < 200
CC(=O)Nc1ccc(NC(=O)c2nn(Cc3ccc(S(C)(=O)=O)cc3)c3ccccc23)cc1 [Compound 107, N-(4-acetamidophenyl)-1-(4-(methylsulfonyl)benzyl)-1H-indazole-3-carboxamide] | 201 to 300
CC(C)(C)c1ccc(Cn2nc(C(=O)Nc3ccc(N4CCCCC4)cc3)c3ccccc32)cc1 [Compound 79, 1-(4-tert-butylbenzyl)-N-(4-(piperidin-1-yl)phenyl)-1H-indazole-3-carboxamide] | < 200
CS(=O)(=O)c1ccc(Cn2nc(-c3nc4ccc(Cl)cc4o3)c3ccccc32)cc1 [Compound 95, 6-chloro-2-(1-(4-(methylsulfonyl)benzyl)-1H-indazol-3-yl)benzo[d]oxazole] | < 200
O=C(Nc1nccs1)c1nn(CCOc2ccccc2)c2ccccc12 [Compound 71, 1-(2-phenoxyethyl)-N-(thiazol-2-yl)-1H-indazole-3-carboxamide] | < 200
C#CCN(C)S(=O)(=O)c1ccc(Cn2nc(C(=O)Nc3ccc(C(N)=O)cc3)c3ccccc32)cc1 [Compound 76, N-(4-carbamoylphenyl)-1-(4-(N-methyl-N-(prop-2-ynyl)sulfamoyl)benzyl)-1H-indazole-3-carboxamide] | < 200
CS(=O)(=O)c1ccc(Cn2nc(C(=O)Nc3ccc4c(c3)CCCC4)c3ccccc32)cc1 [Compound 121, 1-(4-(methylsulfonyl)benzyl)-N-(5,6,7,8-tetrahydronaphthalen-2-yl)-1H-indazole-3-carboxamide] | 201 to 300
O=C(NCc1ccccc1F)Nc1nn(Cc2cc3c(cc2Cl)OCO3)c2ccccc12 [Compound 47, 1-(1-((6-chlorobenzo[d][1,3]dioxol-5-yl)methyl)-1H-indazol-3-yl)-3-(2-fluorobenzyl)urea] | < 200
CCc1ccc(Cn2nc(C(=O)Nc3ccc4c(c3)OCO4)c3ccccc32)cc1 [Compound 132, N-(benzo[d][1,3]dioxol-5-yl)-1-(4-ethylbenzyl)-1H-indazole-3-carboxamide] | 201 to 300
COc1ccc(NC(=O)c2nn(Cc3ccc(S(C)(=O)=O)cc3)c3ccccc23)cc1 [Compound 34, N-(4-methoxyphenyl)-1-(4-(methylsulfonyl)benzyl)-1H-indazole-3-carboxamide] | 301 to 400
CON(C)S(=O)(=O)c1ccc(Cn2nc(C(=O)Nc3nccs3)c3ccccc32)cc1 [Compound 36, 1-(4-(N-methoxy-N-methylsulfamoyl)benzyl)-N-(thiazol-2-yl)-1H-indazole-3-carboxamide] | < 200

SMILES | activity at 10 µM [%]
O=C(Nc1ccc2c(c1)OCCO2)c1nn(Cc2ccc(C(=O)N3CCOCC3)cc2)c2cc(C(F)(F)F)ccc12 [Compound 163, N-(2,3-dihydrobenzo[b][1,4]dioxin-6-yl)-1-(4-(morpholine-4-carbonyl)benzyl)-6-(trifluoromethyl)-1H-indazole-3-carboxamide] | < 200
CN(Cc1ccccc1)C(=O)c1ccc(Cn2nc(C(=O)Nc3ccc(C(F)(F)F)cc3)c3ccccc32)cc1 [Compound 20, 1-(4-(benzyl(methyl)carbamoyl)benzyl)-N-(4-(trifluoromethyl)phenyl)-1H-indazole-3-carboxamide] | < 200
CS(=O)(=O)c1ccc(Cn2nc(C(=O)Nc3ccc4ccccc4c3)c3ccccc32)cc1 [Compound 116, 1-(4-(methylsulfonyl)benzyl)-N-(naphthalen-2-yl)-1H-indazole-3-carboxamide] | 201 to 300
O=C(Nc1ccc2c(c1)OCO2)c1nn(Cc2cccnc2)c2ccccc12 [Compound 106, N-(benzo[d][1,3]dioxol-5-yl)-1-(pyridin-3-ylmethyl)-1H-indazole-3-carboxamide] | 201 to 300
CC(C)S(=O)(=O)c1ccc(Cn2nc(C(=O)Nc3ccc4c(c3)OCO4)c3ccccc32)cc1 [Compound 152, N-(benzo[d][1,3]dioxol-5-yl)-1-(4-(isopropylsulfonyl)benzyl)-1H-indazole-3-carboxamide] | < 200
CCc1ccc(Cn2nc(C(=O)Nc3ccc4c(c3)OC(F)(F)C(F)(F)O4)c3ccccc32)cc1 [Compound 159, 1-(4-ethylbenzyl)-N-(2,2,3,3-tetrafluoro-2,3-dihydrobenzo[b][1,4]dioxin-6-yl)-1H-indazole-3-carboxamide] | < 200
CC(C)c1ccc(NC(=O)c2nn(Cc3ccc(C(=O)N4CCOCC4)cc3)c3ccccc23)cc1 [Compound 19, N-(4-isopropylphenyl)-1-(4-(morpholine-4-carbonyl)benzyl)-1H-indazole-3-carboxamide] | > 401
COc1ccc(NC(=O)c2nn(CCCOc3ccccc3)c3ccccc23)cc1 [Compound 5, N-(4-methoxyphenyl)-1-(3-phenoxypropyl)-1H-indazole-3-carboxamide] | < 200
Cc1ccc(Cn2nc(C(=O)Nc3ccc4c(c3)OCO4)c3ccccc32)cc1 [Compound 131, N-(benzo[d][1,3]dioxol-5-yl)-1-(4-methylbenzyl)-1H-indazole-3-carboxamide] | < 200
COc1cccc(OCc2ccc(Cn3nc(NC(=O)Nc4ccc(OC)c(OC)c4)c4ccccc43)cc2)c1 [Compound 54, 1-(3,4-dimethoxyphenyl)-3-(1-(4-((3-methoxyphenoxy)methyl)benzyl)-1H-indazol-3-yl)urea] | < 200
O=C(Nc1nn(Cc2ccc(CN3C(=O)CCC3=O)cc2)c2ccccc12)c1cnc2ccccc2n1 [Compound 33, N-(1-(4-((2,5-dioxopyrrolidin-1-yl)methyl)benzyl)-1H-indazol-3-yl)quinoxaline-2-carboxamide] | < 200
CCN(CC)C(=O)c1ccc(Cn2nc(C(=O)Nc3ccc4c(c3)OCO4)c3ccccc32)cc1 [Compound 151, N-(benzo[d][1,3]dioxol-5-yl)-1-(4-(diethylcarbamoyl)benzyl)-1H-indazole-3-carboxamide] | < 200
CCN(CC)S(=O)(=O)c1ccc(Cn2nc(C(=O)Nc3ccc(N4CCCCC4)cc3)c3ccccc32)cc1 [Compound 10, 1-(4-(N,N-diethylsulfamoyl)benzyl)-N-(4-(piperidin-1-yl)phenyl)-1H-indazole-3-carboxamide] | 201 to 300
CS(=O)(=O)c1ccc(Cn2nc(C(=O)Nc3ccc4c(c3)CCC4)c3ccccc32)cc1 [Compound 130, N-(2,3-dihydro-1H-inden-5-yl)-1-(4-(methylsulfonyl)benzyl)-1H-indazole-3-carboxamide] | 201 to 300
O=C(Nc1ccc2c(c1)OCO2)c1nn(Cc2ccsc2)c2ccccc12 [Compound 129, N-(benzo[d][1,3]dioxol-5-yl)-1-(thiophen-3-ylmethyl)-1H-indazole-3-carboxamide] | < 200
Cc1cnc(NC(=O)c2nn(Cc3ccc(S(C)(=O)=O)cc3)c3ccccc23)s1 [Compound 125, 1-(4-(methylsulfonyl)benzyl)-N-(5-methylthiazol-2-yl)-1H-indazole-3-carboxamide] | < 200
